The record followed here is patent US20220370440A1 (Lead Discovery Center GmbH, priority 2018, published 2022).

As a reminder, the IC50 is the concentration at which inhibition is half-maximal.

Structures are written as SMILES.

One data set addresses T1, HER2 INS YVMA (Homo sapiens, UniProt P04626, INS775YVMA).
T1 construct: purchased DPF
Kind of data set: Lance Kinase Activity Assay, HER2 INS YVMA (Her2 Exon 20 INSYVMA Lance). The data set is classed as biochemical. The settings on record: biochemical Lance assay. Summed up:
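IC50 was fitted to sigmoidal curves of TR-FRET signal (665 and 615 nm emission after 340 nm excitation) from an Eu anti-phospho antibody binding the phosphorylated ULight peptide. The ATP-started reaction ran 1 h at RT and was then quenched with 10 mM EDTA plus antibody for a further 1 h. Compounds were tested as 8-point, 3-fold dilutions.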

Data set [1] concerns the target Her2 Exon 20 INSYVMA Ba/F3 (Homo sapiens, UniProt P04626, DUP772-775, cells depend on it). Kind of data set: Her2 Exon 20 INSYVMA Ba/F3 CellTiter-Glo. The data set is classed as cell-based. The settings on record: CellTiter-Glo, 72 h, read-out: Her2 Exon 20 INSYVMA Ba/F3 CTG IC50. The gist of the method:
(§1)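 IC50 values come from dose–response fits of CellTiter-Glo luminescence in Ba/F3 cells treated with compound for 72 h at 37 °C, 5% CO2. Vehicle (DMSO) and 10 μM staurosporine wells set the assay window, with Z′ ≥0.5 required.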
In general terms: Cellular ATP, detected with luciferase, serves as a proxy for viable cell number.

Data set [2] deals with EGFR Exon 20 INSNPH Ba/F3 (Homo sapiens, UniProt P00533, DUP771-773, cells depend on it). In words: EGFR Exon 20 INSNPH Ba/F3 CellTiter-Glo. The data set is classed as cell-based. Conditions: CellTiter-Glo, 72 h, read-out: EGFR Exon 20 INSNPH Ba/F3 CTG IC50. The gist of the method: as §1
Sequence of EGFR Exon 20 INSNPH Ba/F3 (P00533 with tags, fused parts or gaps DUP771-773): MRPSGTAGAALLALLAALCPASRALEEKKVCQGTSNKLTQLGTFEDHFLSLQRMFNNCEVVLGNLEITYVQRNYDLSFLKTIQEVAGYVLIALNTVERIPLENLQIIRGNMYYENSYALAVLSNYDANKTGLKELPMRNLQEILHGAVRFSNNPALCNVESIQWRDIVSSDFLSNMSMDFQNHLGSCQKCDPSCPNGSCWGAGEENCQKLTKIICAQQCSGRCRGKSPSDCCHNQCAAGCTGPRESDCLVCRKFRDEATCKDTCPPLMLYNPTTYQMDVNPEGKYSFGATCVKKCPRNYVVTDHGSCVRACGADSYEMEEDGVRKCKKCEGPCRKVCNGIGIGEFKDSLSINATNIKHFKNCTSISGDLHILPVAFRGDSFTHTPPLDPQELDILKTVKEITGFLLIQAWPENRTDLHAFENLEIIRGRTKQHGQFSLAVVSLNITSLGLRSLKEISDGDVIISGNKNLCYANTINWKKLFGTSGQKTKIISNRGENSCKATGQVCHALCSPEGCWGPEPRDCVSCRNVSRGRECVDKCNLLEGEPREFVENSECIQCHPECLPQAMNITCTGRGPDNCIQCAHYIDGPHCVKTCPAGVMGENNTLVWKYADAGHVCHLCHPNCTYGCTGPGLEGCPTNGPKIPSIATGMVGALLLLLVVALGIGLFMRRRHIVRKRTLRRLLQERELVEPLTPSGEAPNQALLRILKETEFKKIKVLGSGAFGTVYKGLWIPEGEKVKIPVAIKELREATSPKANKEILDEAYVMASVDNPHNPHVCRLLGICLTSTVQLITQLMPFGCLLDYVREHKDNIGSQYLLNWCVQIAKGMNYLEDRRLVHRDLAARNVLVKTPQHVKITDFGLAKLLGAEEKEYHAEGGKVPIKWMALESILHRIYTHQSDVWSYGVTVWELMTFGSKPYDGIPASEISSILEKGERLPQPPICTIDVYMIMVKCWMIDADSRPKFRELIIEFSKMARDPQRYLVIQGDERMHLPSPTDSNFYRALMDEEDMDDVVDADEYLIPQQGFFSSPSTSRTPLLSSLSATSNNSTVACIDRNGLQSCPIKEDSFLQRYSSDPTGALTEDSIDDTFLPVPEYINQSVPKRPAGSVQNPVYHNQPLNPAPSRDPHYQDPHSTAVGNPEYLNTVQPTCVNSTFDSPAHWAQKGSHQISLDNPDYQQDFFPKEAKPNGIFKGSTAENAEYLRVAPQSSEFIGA
In a further data set the target is EGFR T790ML858R (Homo sapiens, UniProt P00533, L858R/T790M). In words: EGFR T790ML858R Lance assay. The data set is classed as biochemical. The protocol:
(§2) Inhibition is indicated as […] [nM] (“−”=not measured). Compounds having an activity designated as “A” provided an IC50≤100 nM; compounds having an activity designated as “B” provided an 100 nM<IC50≤500 nM; compounds having an activity designated as “C” provided an 500 nM<IC50≤1000 nM; compounds having an activity designated as “D” provided an 1000 nM<IC50≤100000 nM; and compounds having an activity designated as “E” provided an IC50>10000 nM.

Another data set addresses EGFR wt (Homo sapiens, UniProt P00533). In words: EGFR wt Lance assay. The data set is classed as biochemical. The procedure: as §2
The test system of the next data set is H1975. In words: H1975 CellTiter-Glo. The data set is classed as cell-based. Conditions: Homo sapiens, NCI-H1975; 72 h compound incubation; read-out: H1975 CTG IC50. Summed up:
(§3)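 ATP-based luminescent viability read after 72 h compound exposure (DMSO vehicle, range of concentrations), cells plated 24 h beforehand at 37° C, 5% CO2. IC50 by dose-response fitting; 10 μM Staurosporine and DMSO controls, Z′-factor ≥0.5 required.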

For the next data set, the system named is A431. Kind of data set: A431 CellTiter-Glo. The data set is classed as cell-based. Conditions: Homo sapiens, A-431; 72 h compound incubation; read-out: A431 CTG IC50. Summed up:
as §3

A short description of data set [3]: Metabolic stability in mouse liver microsomes without cofactor NADPH. The settings on record: 3 μM test compound, mouse liver microsomes, without NADPH, 50 min, 37° C., LC-MS/MS. The data set is classed as in vitro ADME. From the text:
There are two major groups of enzyme reactions catalyzed by drug metabolizing enzymes, the so called Phase I and Phase II reactions. The basic processes in phase I reactions are oxidation, reduction and/or hydrolysis mostly catalyzed by the cytochrome P450 (CYP) family of enzymes.
The following procedures describe the determination of the in vitro Phase I metabolic stability of test compounds using liver microsomes by measuring compound depletion over time. Test compound at the concentration of 3 μM was incubated with the liver microsomes from the mouse species and the experiment was performed without NADPH. The depletion of the test compounds was measured over time up to 50 minutes at 37° C. by LC-MS/MS. Different compounds were tested under these conditions for microsomal stability (see Table 5).
On the technique in general: Liver microsomes are a subcellular fraction often used to study metabolism.

T1 sequence (P04626 with tags, fused parts or gaps INS775YVMA): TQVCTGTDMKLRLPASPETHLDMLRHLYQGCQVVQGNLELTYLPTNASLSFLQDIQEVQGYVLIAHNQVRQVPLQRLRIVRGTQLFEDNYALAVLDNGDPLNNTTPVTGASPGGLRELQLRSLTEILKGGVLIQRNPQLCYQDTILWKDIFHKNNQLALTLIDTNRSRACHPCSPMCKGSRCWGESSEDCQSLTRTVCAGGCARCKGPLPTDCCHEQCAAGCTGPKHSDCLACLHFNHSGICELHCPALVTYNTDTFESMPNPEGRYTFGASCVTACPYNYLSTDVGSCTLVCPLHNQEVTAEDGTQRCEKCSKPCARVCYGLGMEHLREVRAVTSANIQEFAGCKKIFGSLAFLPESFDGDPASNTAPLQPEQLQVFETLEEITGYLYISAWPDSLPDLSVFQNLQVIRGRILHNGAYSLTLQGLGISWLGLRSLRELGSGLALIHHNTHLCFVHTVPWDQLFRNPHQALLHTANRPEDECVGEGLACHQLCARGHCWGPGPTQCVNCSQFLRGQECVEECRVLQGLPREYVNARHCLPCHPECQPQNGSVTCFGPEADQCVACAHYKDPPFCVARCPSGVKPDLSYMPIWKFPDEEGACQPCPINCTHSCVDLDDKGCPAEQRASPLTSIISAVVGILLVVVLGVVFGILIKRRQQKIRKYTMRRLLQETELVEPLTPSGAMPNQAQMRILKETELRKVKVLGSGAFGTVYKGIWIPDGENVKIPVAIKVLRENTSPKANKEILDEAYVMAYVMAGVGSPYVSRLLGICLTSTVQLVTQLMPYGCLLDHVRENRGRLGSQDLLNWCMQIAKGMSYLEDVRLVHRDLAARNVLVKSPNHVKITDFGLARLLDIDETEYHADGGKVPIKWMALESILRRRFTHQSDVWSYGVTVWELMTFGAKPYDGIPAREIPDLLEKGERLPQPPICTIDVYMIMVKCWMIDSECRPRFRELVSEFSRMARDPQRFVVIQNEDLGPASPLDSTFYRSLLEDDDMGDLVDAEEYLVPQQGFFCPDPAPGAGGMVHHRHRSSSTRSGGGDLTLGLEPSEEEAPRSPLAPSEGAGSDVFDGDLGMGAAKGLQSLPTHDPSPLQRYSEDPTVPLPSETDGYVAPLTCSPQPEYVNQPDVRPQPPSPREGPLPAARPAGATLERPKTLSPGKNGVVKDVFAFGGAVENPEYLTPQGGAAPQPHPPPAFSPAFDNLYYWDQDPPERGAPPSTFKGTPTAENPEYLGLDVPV
Sequence of EGFR wt (P00533 25-1210): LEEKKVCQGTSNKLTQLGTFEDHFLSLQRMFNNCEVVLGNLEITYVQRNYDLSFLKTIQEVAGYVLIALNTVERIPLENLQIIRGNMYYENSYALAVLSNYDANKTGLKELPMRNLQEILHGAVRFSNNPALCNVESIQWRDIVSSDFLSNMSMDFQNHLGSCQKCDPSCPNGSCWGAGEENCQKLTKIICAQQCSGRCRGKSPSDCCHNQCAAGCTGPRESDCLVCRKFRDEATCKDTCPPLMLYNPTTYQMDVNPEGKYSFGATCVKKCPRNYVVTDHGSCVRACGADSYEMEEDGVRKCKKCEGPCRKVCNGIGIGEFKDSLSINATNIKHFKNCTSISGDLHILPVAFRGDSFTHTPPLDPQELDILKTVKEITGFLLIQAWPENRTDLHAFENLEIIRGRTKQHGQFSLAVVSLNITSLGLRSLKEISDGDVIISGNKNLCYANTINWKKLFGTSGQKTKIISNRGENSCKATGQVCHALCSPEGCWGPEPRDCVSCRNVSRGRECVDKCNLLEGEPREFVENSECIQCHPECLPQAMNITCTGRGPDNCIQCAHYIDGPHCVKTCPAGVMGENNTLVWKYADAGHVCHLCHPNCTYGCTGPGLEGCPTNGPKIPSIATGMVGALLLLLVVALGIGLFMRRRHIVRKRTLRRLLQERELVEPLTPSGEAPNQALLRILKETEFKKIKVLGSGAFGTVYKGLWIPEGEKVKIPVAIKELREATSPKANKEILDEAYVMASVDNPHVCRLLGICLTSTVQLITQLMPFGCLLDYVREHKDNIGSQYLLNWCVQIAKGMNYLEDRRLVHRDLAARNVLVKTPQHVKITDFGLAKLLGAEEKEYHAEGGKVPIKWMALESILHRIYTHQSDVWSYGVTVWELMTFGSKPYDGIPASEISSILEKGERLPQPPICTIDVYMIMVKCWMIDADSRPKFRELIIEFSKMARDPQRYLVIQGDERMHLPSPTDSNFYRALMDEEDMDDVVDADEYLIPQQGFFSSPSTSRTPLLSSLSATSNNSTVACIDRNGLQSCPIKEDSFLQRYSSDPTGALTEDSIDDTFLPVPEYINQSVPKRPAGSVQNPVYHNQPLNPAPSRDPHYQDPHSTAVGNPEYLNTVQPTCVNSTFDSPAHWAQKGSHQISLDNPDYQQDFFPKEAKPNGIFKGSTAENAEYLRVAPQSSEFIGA
Sequence of EGFR T790ML858R (P00533 25-1210 T790M/L858R): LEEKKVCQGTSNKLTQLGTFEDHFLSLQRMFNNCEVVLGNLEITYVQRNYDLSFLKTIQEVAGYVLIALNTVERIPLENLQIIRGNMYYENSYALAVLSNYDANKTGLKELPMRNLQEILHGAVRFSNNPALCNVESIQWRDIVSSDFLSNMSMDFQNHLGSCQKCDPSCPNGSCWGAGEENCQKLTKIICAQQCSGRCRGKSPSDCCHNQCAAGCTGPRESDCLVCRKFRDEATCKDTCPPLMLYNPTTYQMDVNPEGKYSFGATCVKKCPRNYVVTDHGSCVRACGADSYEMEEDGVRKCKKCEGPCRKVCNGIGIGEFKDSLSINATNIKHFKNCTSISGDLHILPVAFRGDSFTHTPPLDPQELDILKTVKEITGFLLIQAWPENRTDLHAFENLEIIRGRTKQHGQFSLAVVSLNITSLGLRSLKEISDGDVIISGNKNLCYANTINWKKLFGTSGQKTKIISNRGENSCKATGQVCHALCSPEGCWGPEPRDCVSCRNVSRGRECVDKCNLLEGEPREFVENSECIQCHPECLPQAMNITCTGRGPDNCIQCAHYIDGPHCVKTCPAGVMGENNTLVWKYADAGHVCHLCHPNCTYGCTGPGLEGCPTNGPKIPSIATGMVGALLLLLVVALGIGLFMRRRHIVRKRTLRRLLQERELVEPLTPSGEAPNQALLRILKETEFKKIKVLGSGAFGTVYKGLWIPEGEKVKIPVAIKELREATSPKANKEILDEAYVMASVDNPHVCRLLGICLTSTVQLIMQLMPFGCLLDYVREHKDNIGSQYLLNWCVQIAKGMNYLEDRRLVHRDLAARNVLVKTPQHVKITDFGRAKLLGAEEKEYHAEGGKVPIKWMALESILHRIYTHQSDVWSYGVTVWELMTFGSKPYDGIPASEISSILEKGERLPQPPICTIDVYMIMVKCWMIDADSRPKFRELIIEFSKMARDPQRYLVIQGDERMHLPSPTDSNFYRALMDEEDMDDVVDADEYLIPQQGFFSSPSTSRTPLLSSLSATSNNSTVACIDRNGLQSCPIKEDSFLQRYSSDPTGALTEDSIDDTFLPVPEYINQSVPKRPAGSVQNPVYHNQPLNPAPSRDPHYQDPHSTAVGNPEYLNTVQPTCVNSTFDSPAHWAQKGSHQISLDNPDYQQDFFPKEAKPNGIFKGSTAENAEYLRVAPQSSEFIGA

For the compound `C=CC(=O)Nc1cc(-c2c(-c3ccc(N4CCN(CC)CC4)cc3)[nH]c3ncc(C(=O)OC(C)C)cc23)ccc1C` [Example 157, isopropyl 3-(3-acrylamido-4-methylphenyl)-2-(4-(4-ethylpiperazin-1-yl)phenyl)-1H-pyrrolo[2,3-b]pyridine-5-carboxylate], the IC50 at HER2 INS YVMA is at most 100 nM; against EGFR T790ML858R, at most 100 nM; at EGFR wt, at most 100 nM; in the data set with H1975, 100 to 500 nM; in the data set on A431 it was 1000 to 100000 nM. Further, the GI50 in data set [1] and in data set [2] was 100 to 500 nM throughout. Moreover, the “Stability in presence of mouse liver microsomes without cofactor NADPH [% remaining after 50 min]” value in data set [3] was over 99 % remaining after 50 min.

Regarding `C=CC(=O)Nc1cc(-c2c(-c3ccc(N4CCN(C)CC4)c(F)c3)[nH]c3ncc(C(=O)OC(C)C)cc23)ccc1C` [Example 164, isopropyl 3-(3-acrylamido-4-methylphenyl)-2-(3-fluoro-4-(4-methylpiperazin-1-yl)phenyl)-1H-pyrrolo[2,3-b]pyridine-5-carboxylate], the concentration for half-maximal inhibition (IC50) is at most 100 nM at HER2 INS YVMA; at most 100 nM against EGFR T790ML858R; at most 100 nM at EGFR wt; 100 to 500 nM in the data set with H1975; 1000 to 100000 nM in the data set with A431. Further, the GI50 in data set [1] and in data set [2] was 100 to 500 nM in each case. In addition, in data set [3], the “Stability in presence of mouse liver microsomes without cofactor NADPH [% remaining after 50 min]” value is over 99 % remaining after 50 min.

For `C=CC(=O)N1CCCc2ccc(-c3c(-c4cccc(CN5CCN(C)CC5)c4)[nH]c4nccc(Cl)c34)cc21` [Example 95, 1-(7-(4-chloro-2-(3-((4-methylpiperazin-1-yl)methyl)phenyl)-1H-pyrrolo[2,3-b]pyridin-3-yl)-3,4-dihydroquinolin-1(2H)-yl)prop-2-en-1-one], the IC50 on HER2 INS YVMA was at most 100 nM; against EGFR T790ML858R, at most 100 nM; on EGFR wt, at most 100 nM; in the data set with H1975 it was 500 to 1000 nM; in the data set with A431, 1000 to 100000 nM. The GI50 in data set [1] and in data set [2] was 1000 to 10000 nM each time. Moreover, the “Stability in presence of mouse liver microsomes without cofactor NADPH [% remaining after 50 min]” value in data set [3] is over 99 % remaining after 50 min.

As to `C=CC(=O)Nc1cc(-c2c(-c3cccc(CN(C)C)c3)[nH]c3ncc(C(=O)OC(C)C)cc23)ccc1C` [Example 187, isopropyl 3-(3-acrylamido-4-methylphenyl)-2-(3-((dimethylamino)methyl)phenyl)-1H-pyrrolo[2,3-b]pyridine-5-carboxylate], the IC50 against HER2 INS YVMA is at most 100 nM; at EGFR T790ML858R, at most 100 nM; against EGFR wt, at most 100 nM; with H1975, 100 to 500 nM; with A431, 1000 to 100000 nM. Also, the GI50 in data set [1] and in data set [2] was 100 to 500 nM each time. In addition, in data set [3], the “Stability in presence of mouse liver microsomes without cofactor NADPH [% remaining after 50 min]” value was over 99 % remaining after 50 min.

For `C=CC(=O)Nc1cc(-c2c(-c3ccc(OCCN(C)C)cc3)[nH]c3ncc(C(=O)OC(C)C)cc23)ccc1C` [Example 159, isopropyl 3-(3-acrylamido-4-methylphenyl)-2-(4-(2-(dimethylamino)ethoxy)phenyl)-1H-pyrrolo[2,3-b]pyridine-5-carboxylate], the IC50 at HER2 INS YVMA is at most 100 nM; on EGFR T790ML858R it was at most 100 nM; at EGFR wt it was at most 100 nM; with H1975, 100 to 500 nM; in the data set with A431, 1000 to 100000 nM. The GI50 in data set [1] and in data set [2] was 100 to 500 nM throughout. For the same compound, in data set [3], the “Stability in presence of mouse liver microsomes without cofactor NADPH [% remaining after 50 min]” value is given as over 99 % remaining after 50 min.

On to `C=CC(=O)N1CCOc2ccc(-c3c(-c4ccc(N(C)CCN(C)C)cc4)[nH]c4nccc(Cl)c34)cc21` [Example 84, 1-(6-(4-chloro-2-(4-((2-(dimethylamino)ethyl)(methyl)amino)phenyl)-1H-pyrrolo[2,3-b]pyridin-3-yl)-2H-benzo[b][1,4]oxazin-4(3H)-yl)prop-2-en-1-one], for which the IC50 on HER2 INS YVMA is at most 100 nM; against EGFR T790ML858R, at most 100 nM; against EGFR wt it was at most 100 nM; in the data set on H1975 it was 100 to 500 nM; with A431 it was 500 to 1000 nM. Besides, the GI50 in data set [1] and in data set [2] was 100 to 500 nM throughout. Moreover, the “Stability in presence of mouse liver microsomes without cofactor NADPH [% remaining after 50 min]” value in data set [3] came out at 94 % remaining after 50 min.

Consider `C=CC(=O)N1CCc2ccc(-c3c(-c4cccc(OCCN5CCCC5)c4)[nH]c4nccc(Cl)c34)cc21` [Example 64, 1-(6-(4-chloro-2-(3-(2-(pyrrolidin-1-yl)ethoxy)phenyl)-1H-pyrrolo[2,3-b]pyridin-3-yl)indolin-1-yl)prop-2-en-1-one], for which the IC50 against HER2 INS YVMA was at most 100 nM; at EGFR T790ML858R it was at most 100 nM; against EGFR wt it was at most 100 nM; with H1975, at most 100 nM; with A431 it was 500 to 1000 nM. Besides, the GI50 in data set [1] and in data set [2] was 100 to 500 nM throughout. Further, the “Stability in presence of mouse liver microsomes without cofactor NADPH [% remaining after 50 min]” value in data set [3] is over 99 % remaining after 50 min.

As for `C=CC(=O)N1CCc2ccc(-c3c(-c4ccc(N5CCN(C)CC5)cc4)[nH]c4nccc(OCC)c34)cc21` [Example 104, 1-(6-(4-ethoxy-2-(4-(4-methylpiperazin-1-yl)phenyl)-1H-pyrrolo[2,3-b]pyridin-3-yl)indolin-1-yl)prop-2-en-1-one 2,2,2-trifluoroacetate], the IC50 against HER2 INS YVMA was at most 100 nM; at EGFR T790ML858R it was at most 100 nM; against EGFR wt it was at most 100 nM; with H1975, at most 100 nM; in the data set on A431, 500 to 1000 nM. The GI50 in data set [1] and in data set [2] was 100 to 500 nM throughout. In addition, the “Stability in presence of mouse liver microsomes without cofactor NADPH [% remaining after 50 min]” value in data set [3] is 89 % remaining after 50 min.

Consider `C=CC(=O)Nc1cc(-c2c(-c3ccc(N4CCN(C)CC4)cc3)[nH]c3ncc(C#N)cc23)ccc1C` [Example 97, N-(5-(5-cyano-2-(4-(4-methylpiperazin-1-yl)phenyl)-1H-pyrrolo[2,3-b]pyridin-3-yl)-2-methylphenyl)acrylamide 2,2,2-trifluoroacetate], for which the IC50 is at most 100 nM on HER2 INS YVMA; at most 100 nM on EGFR T790ML858R; at most 100 nM on EGFR wt; at most 100 nM in the data set with H1975; 100 to 500 nM in the data set on A431. Further, the figures for the GI50 in data set [1] and in data set [2] were 100 to 500 nM and at most 100 nM, respectively. Further, the “Stability in presence of mouse liver microsomes without cofactor NADPH [% remaining after 50 min]” value in data set [3] is reported as over 99 % remaining after 50 min.

Take `C=CC(=O)Nc1cc(-c2c(-c3cccc(CN4CCOCC4)c3)[nH]c3nccc(Cl)c23)ccc1C` [Example 7, N-(5-(4-chloro-2-(3-(morpholinomethyl)phenyl)-1H-pyrrolo[2,3-b]pyridin-3-yl)-2-methylphenyl)acrylamide]: the 50% inhibitory concentration (IC50) against HER2 INS YVMA is 500 to 1000 nM; on EGFR T790ML858R, at most 100 nM; on EGFR wt, 100 to 500 nM; in the data set on H1975 it was 100 to 500 nM. In addition, the GI50 in data set [1] is 500 to 1000 nM; in data set [2], 1000 to 10000 nM. Moreover, the “Stability in presence of mouse liver microsomes without cofactor NADPH [% remaining after 50 min]” value in data set [3] is over 99 % remaining after 50 min.

As to `C=CC(=O)Nc1cc(-c2c(-c3ccc(C(=O)N4CCN(C)CC4)cc3)[nH]c3nccc(Cl)c23)ccc1C` [Example 9, N-(5-(4-chloro-2-(4-(4-methylpiperazine-1-carbonyl)phenyl)-1H-pyrrolo[2,3-b]pyridin-3-yl)-2-methylphenyl)acrylamide], the IC50 against HER2 INS YVMA, against EGFR T790ML858R, on EGFR wt and in the data set on H1975 was at most 100 nM each time. Besides, the GI50 in data set [1] and in data set [2] was 100 to 500 nM each time. Also, the “Stability in presence of mouse liver microsomes without cofactor NADPH [% remaining after 50 min]” value in data set [3] is on record as over 99 % remaining after 50 min.
